# Measured values reported in patent US20230085307A1, “PYRIDAZINONE COMPOUND AND HERBICIDE” (NISSAN CHEMICAL CORPORATION, priority 2019, published 2023).
# What was measured:
# barnyard grass [1] = assay: Test Example 3: herbicidal effect by foliage application, Wagner pot (Table 18, symbol H); type: in vivo, barnyard grass (Echinochloa crus-galli); settings: 320 g/ha
# Summary of the method: (§1)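 Plants were sown in alluvial soil held under 0.1–0.5 cm standing water and grown 14 days in a greenhouse at 25–30 °C. An emulsifiable formulation, water-diluted to the set dose, was then sprayed onto the foliage, and effects were scored three weeks later using previously defined criteria.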
# Chinese sprangletop = assay: Test Example 3: herbicidal effect by foliage application, Wagner pot (Table 18, symbol D); type: in vivo, chinese sprangletop (Leptochloa chinensis); settings: 320 g/ha
# Summary of the method: as §1
# rice flat sedge = assay: Test Example 3: herbicidal effect by foliage application, Wagner pot (Table 18, symbol E); type: in vivo, rice flat sedge (Cyperus iria); settings: 320 g/ha
# Summary of the method: as §1
# wild oat [2] = assay: Test Example 4: herbicidal effect by soil treatment (Table 19, symbol I); type: in vivo, wild oat (Avena fatua); settings: amount of applied herbicide 320 g/ha
# From the text: (§2) [Test Example 4] Herbicidal Effect Test by Soil Treatment
# (§3) Sterilized diluvial soil was placed in a plastic box having a length of 21 cm, a width of 13 cm, and a depth of 7 cm. The seeds of each of southern crabgrass, green foxtail, barnyard grass, wild oat, blackgrass, Italian ryegrass, windgrass, velvetleaf, redroot pigweed, lambsquarters, chickweed, false cleavers, persian speedwell, corn, soybean, rice, wheat, beet, and rapeseed were sowed in a spot-like manner and covered with the soil having a thickness of about 1.5 cm. Subsequently, the emulsion agent of the compound of the present invention prepared according to Formulation Example 2 was diluted with water so as to achieve a predetermined herbicide amount, and the diluted emulsion agent was uniformly applied to the surface of the soil with a small-sized spray. The plastic box was placed in a greenhouse at 25° C. to 30° C. for growth of the plants. Three weeks after the herbicide application, the effect of the herbicide on each plant was evaluated according to the criteria of Test Example 1.
# Italian ryegrass [3] = assay: Test Example 4: herbicidal effect by soil treatment (Table 19, symbol K); type: in vivo, Italian ryegrass (Lolium multiflorum); settings: amount of applied herbicide 320 g/ha
# From the text: as §2, §3
# redroot pigweed [4] = assay: Test Example 4: herbicidal effect by soil treatment (Table 19, symbol N); type: in vivo, redroot pigweed (Amaranthus retroflexus); settings: amount of applied herbicide 320 g/ha
# Summary of the method: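 In this soil treatment, the formulated compound reached the seeds only through the soil: seeds were buried about 1.5 cm deep in sterilized diluvial soil, then the diluted emulsion was sprayed over the surface. After three weeks at 25° C. to 30° C. in a greenhouse, effects were graded on criteria from an earlier test.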
# southern crabgrass = assay: Test Example 5: herbicidal effect by foliage application, plastic box (Table 20, symbol F); type: in vivo, southern crabgrass (Digitaria ciliaris); settings: foliage application, 320 g/ha, three weeks after application
# Summary of the method: (§4)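 Plants were sown into sterilized diluvial soil under about 1.5 cm cover and kept in a greenhouse at 25° C. to 30° C. Fourteen days on, foliage received an even spray of the diluted emulsion. Herbicidal or crop effect was judged three weeks afterwards.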
# green foxtail = assay: Test Example 5: herbicidal effect by foliage application, plastic box (Table 20, symbol G); type: in vivo, green foxtail (Setaria viridis); settings: foliage application, 320 g/ha, three weeks after application
# Summary of the method: as §4
# barnyard grass [5] = assay: Test Example 5: herbicidal effect by foliage application, plastic box (Table 20, symbol H); type: in vivo, barnyard grass (Echinochloa crus-galli); settings: foliage application, 320 g/ha, three weeks after application
# Summary of the method: as §4
# wild oat [6] = assay: Test Example 5: herbicidal effect by foliage application, plastic box (Table 20, symbol I); type: in vivo, wild oat (Avena fatua); settings: foliage application, 320 g/ha, three weeks after application
# Summary of the method: as §4
# blackgrass = assay: Test Example 5: herbicidal effect by foliage application, plastic box (Table 20, symbol J); type: in vivo, blackgrass (Alopecurus myosuroides); settings: foliage application, 320 g/ha, three weeks after application
# Summary of the method: as §4
# Italian ryegrass [7] = assay: Test Example 5: herbicidal effect by foliage application, plastic box (Table 20, symbol K); type: in vivo, Italian ryegrass (Lolium multiflorum); settings: foliage application, 320 g/ha, three weeks after application
# Summary of the method: as §4
# windgrass = assay: Test Example 5: herbicidal effect by foliage application, plastic box (Table 20, symbol L); type: in vivo, windgrass (Apera spica-venti); settings: foliage application, 320 g/ha, three weeks after application
# Summary of the method: as §4
# velvetleaf = assay: Test Example 5: herbicidal effect by foliage application, plastic box (Table 20, symbol M); type: in vivo, velvetleaf (Abutilon theophrasti); settings: foliage application, 320 g/ha, three weeks after application
# Summary of the method: as §4
# redroot pigweed [8] = assay: Test Example 5: herbicidal effect by foliage application, plastic box (Table 20, symbol N); type: in vivo, redroot pigweed (Amaranthus retroflexus); settings: foliage application, 320 g/ha, three weeks after application
# Summary of the method: as §4
# lambsquarters = assay: Test Example 5: herbicidal effect by foliage application, plastic box (Table 20, symbol O); type: in vivo, lambsquarters (Chenopodium album); settings: foliage application, 320 g/ha, three weeks after application
# Summary of the method: as §4
# chickweed = assay: Test Example 5: herbicidal effect by foliage application, plastic box (Table 20, symbol P); type: in vivo, common chickweed (Stellaria media); settings: foliage application, 320 g/ha, three weeks after application
# Summary of the method: as §4
# persian speedwell = assay: Test Example 5: herbicidal effect by foliage application, plastic box (Table 20, symbol R); type: in vivo, Persian speedwell (Veronica persica); settings: foliage application, 320 g/ha, three weeks after application
# Summary of the method: as §4
smiles,measurement,setting,value
Cc1nn(C)c(=O)c(-c2c(-c3ccc(OC(F)(F)F)cc3)sc3ccccc23)c1O [1-031],"herbicidal effect on H (barnyard grass), rating 0-5",barnyard grass [1],4 (Herbicidal rate of 70% or more and less than 90%)
same,"herbicidal effect on D (Chinese sprangletop), rating 0-5",Chinese sprangletop,0 (Herbicidal rate of 5% or less (almost no effect))
same,"herbicidal effect on E (rice flat sedge), rating 0-5",rice flat sedge,5 (Herbicidal rate of 90% or more (almost completely withered))
same,"herbicidal effect rating, I: wild oat",wild oat [2],0 (Herbicidal rate of 5% or less (almost no effect))
same,"herbicidal effect rating, K: Italian ryegrass",Italian ryegrass [3],3 (Herbicidal rate of 40% or more and less than 70%)
same,"herbicidal effect rating, N: redroot pigweed",redroot pigweed [4],4 (Herbicidal rate of 70% or more and less than 90%)
same,"herbicidal effect grade, F: southern crabgrass",southern crabgrass,0 (Herbicidal rate of 5% or less (almost no effect))
same,"herbicidal effect grade, G: green foxtail",green foxtail,4 (Herbicidal rate of 70% or more and less than 90%)
same,"herbicidal effect grade, H: barnyard grass",barnyard grass [5],3 (Herbicidal rate of 40% or more and less than 70%)
same,"herbicidal effect grade, I: wild oat",wild oat [6],0 (Herbicidal rate of 5% or less (almost no effect))
same,"herbicidal effect grade, J: blackgrass",blackgrass,3 (Herbicidal rate of 40% or more and less than 70%)
same,"herbicidal effect grade, K: Italian ryegrass",Italian ryegrass [7],5 (Herbicidal rate of 90% or more (almost completely withered))
same,"herbicidal effect grade, L: windgrass",windgrass,0 (Herbicidal rate of 5% or less (almost no effect))
same,"herbicidal effect grade, M: velvetleaf",velvetleaf,5 (Herbicidal rate of 90% or more (almost completely withered))
same,"herbicidal effect grade, N: redroot pigweed",redroot pigweed [8],5 (Herbicidal rate of 90% or more (almost completely withered))
same,"herbicidal effect grade, O: lambsquarters",lambsquarters,5 (Herbicidal rate of 90% or more (almost completely withered))
same,"herbicidal effect grade, P: chickweed",chickweed,5 (Herbicidal rate of 90% or more (almost completely withered))
same,"herbicidal effect grade, R: persian speedwell",persian speedwell,5 (Herbicidal rate of 90% or more (almost completely withered))
